Measured values: ChEMBL document CHEMBL1201862, “PubChem BioAssay data set” (2004)
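All cell lines were grown in 96-well plates and treated with compound for 48 hours. GI50: concentration for 50% inhibition of growth.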 Activity calls are given as the source filed them. No stated cut-off is given here; in the data, active = GI50 up to about 1.1 µM and inactive = higher.

Key:
Test in all cases: NCI-60 cell line screen, 48 h
786-0 = test system: 786-0
A498 = test system: A498
A549 = test system: A549
ACHN = test system: ACHN
CCRF-CEM = test system: CCRF-CEM
COLO 205 = test system: COLO 205
DLD-1 = test system: DLD-1
DMS-114 = test system: DMS-114
DMS-273 = test system: DMS-273
EKVX = test system: EKVX
HCC 2998 = test system: HCC 2998
HCT-116 = test system: HCT-116
HCT-15 = test system: HCT-15
HL-60 = test system: HL-60
HOP-18 = test system: HOP-18
HOP-62 = test system: HOP-62
HOP-92 = test system: HOP-92
HT-29 = test system: HT-29
IGROV-1 = test system: IGROV-1
K562 = test system: K562
KM-20L2 = test system: KM-20L2
KM12 = test system: KM12
LOX IMVI = test system: LOX IMVI
LXFL 529 = test system: LXFL 529
M14 = test system: M14
M19-MEL = test system: M19-MEL
MOLT-4 = test system: MOLT-4
Malme-3M = test system: Malme-3M
NCI-H226 = test system: NCI-H226
NCI-H23 = test system: NCI-H23
NCI-H460 = test system: NCI-H460
NCI-H522 = test system: NCI-H522
OVCAR-3 = test system: OVCAR-3
OVCAR-4 = test system: OVCAR-4
OVCAR-5 = test system: OVCAR-5
OVCAR-8 = test system: OVCAR-8
RPMI-8226 = test system: RPMI-8226
RXF 393 = test system: RXF 393
RXF 631 = test system: RXF 631
SF-268 = test system: SF-268
SF-295 = test system: SF-295
SF-539 = test system: SF-539
SK-MEL-28 = test system: SK-MEL-28
SK-MEL-5 = test system: SK-MEL-5
SK-OV-3 = test system: SK-OV-3
SN12C = test system: SN12C
SNB-19 = test system: SNB-19
SNB-75 = test system: SNB-75
SNB-78 = test system: SNB-78
SR = test system: SR
SW-620 = test system: SW-620
TK-10 = test system: TK-10
U-251 = test system: U-251
UACC-257 = test system: UACC-257
UACC-62 = test system: UACC-62
UO-31 = test system: UO-31
CAKI-1 = test system: CAKI-1
SK-MEL-2 = test system: SK-MEL-2

With COc1ccc(-c2cc(-c3ccccc3)c(C#N)c(=O)[nH]2)cc1 the GI50 (786-0) was > 100 µM (inactive), the GI50 (A498) was > 100 µM (inactive) and the GI50 (A549) was > 100 µM (inactive). The GI50 (ACHN) was > 100 µM (inactive), the GI50 (CCRF-CEM) was > 100 µM (inactive) and the GI50 (COLO 205) was > 100 µM (inactive). The GI50 (DLD-1) was > 100 µM (inactive), the GI50 (DMS-114) was > 100 µM (inactive) and the GI50 (DMS-273) was > 100 µM (inactive). The GI50 (EKVX) was > 100 µM (inactive), the GI50 (HCC 2998) was > 100 µM (inactive) and the GI50 (HCT-116) was > 100 µM (inactive). For the same molecule, the GI50 (HCT-15) was greater than 100 µM, the GI50 (HL-60) was > 100 µM (inactive) and the GI50 (HOP-18) was > 100 µM (inactive). The GI50 (HOP-62) was > 100 µM (inactive), the GI50 (HOP-92) was > 100 µM (inactive) and the GI50 (HT-29) was > 100 µM (inactive). The GI50 (IGROV-1) was > 100 µM (inactive), the GI50 (K562) was > 100 µM (inactive) and the GI50 (KM-20L2) was > 100 µM (inactive). For the same molecule, the GI50 (KM12) was > 100 µM (inactive), the GI50 (LOX IMVI) was > 100 µM (inactive) and the GI50 (LXFL 529) was > 100 µM (inactive). The GI50 (M14) was > 100 µM (inactive), the GI50 (M19-MEL) was > 100 µM (inactive) and the GI50 (MOLT-4) was > 100 µM (inactive). The GI50 (Malme-3M) was > 100 µM (inactive), the GI50 (NCI-H226) was > 100 µM (inactive) and the GI50 (NCI-H23) was > 100 µM (inactive). The GI50 (NCI-H460) was > 100 µM (inactive), the GI50 (NCI-H522) was > 100 µM (inactive) and the GI50 (OVCAR-3) was > 100 µM (inactive). For the same molecule, the GI50 (OVCAR-4) was > 100 µM (inactive), the GI50 (OVCAR-5) was > 100 µM (inactive) and the GI50 (OVCAR-8) was > 100 µM (inactive). The GI50 (RPMI-8226) was > 100 µM (inactive), the GI50 (RXF 393) was > 100 µM (inactive) and the GI50 (RXF 631) was > 100 µM (inactive). For the same molecule, the GI50 (SF-268) was > 100 µM (inactive), the GI50 (SF-295) was > 100 µM (inactive) and the GI50 (SF-539) was > 100 µM (inactive). For the same molecule, the GI50 (SK-MEL-28) was > 100 µM (inactive), the GI50 (SK-MEL-5) was > 100 µM (inactive) and the GI50 (SK-OV-3) was > 100 µM (inactive). For the same molecule, the GI50 (SN12C) was > 100 µM (inactive), the GI50 (SNB-19) was > 100 µM (inactive) and the GI50 (SNB-75) was 57.7 µM (inactive). The GI50 (SNB-78) was > 100 µM (inactive), the GI50 (SR) was > 100 µM (inactive) and the GI50 (SW-620) was > 100 µM (inactive). For the same molecule, the GI50 (TK-10) was > 100 µM (inactive), the GI50 (U-251) was > 100 µM (inactive) and the GI50 (UACC-257) was > 100 µM (inactive). For the same molecule, the GI50 (UACC-62) was > 100 µM (inactive) and the GI50 (UO-31) was > 100 µM (inactive).
O=C1Nc2cc(Cl)ccc2N=CC1NC(=O)C(c1ccccc1)c1ccccc1Cl (stereo not drawn) was tested, and the GI50 (786-0) was > 100 µM (inactive), the GI50 (A498) was > 100 µM (inactive) and the GI50 (A549) was > 100 µM (inactive). The GI50 (ACHN) was > 100 µM (inactive), the GI50 (CAKI-1) was > 100 µM (inactive) and the GI50 (CCRF-CEM) was > 100 µM (inactive). For the same molecule, the GI50 (COLO 205) was > 100 µM (inactive), the GI50 (DLD-1) was > 100 µM (inactive) and the GI50 (DMS-114) was > 100 µM (inactive). For the same molecule, the GI50 (DMS-273) was > 100 µM (inactive), the GI50 (EKVX) was > 100 µM (inactive) and the GI50 (HCC 2998) was > 100 µM (inactive). For the same molecule, the GI50 (HCT-116) was > 100 µM (inactive), the GI50 (HCT-15) was greater than 100 µM and the GI50 (HL-60) was > 100 µM (inactive). For the same molecule, the GI50 (HOP-18) was 27.5 µM (inactive), the GI50 (HOP-62) was > 100 µM (inactive) and the GI50 (HOP-92) was > 100 µM (inactive). For the same molecule, the GI50 (HT-29) was > 100 µM (inactive), the GI50 (IGROV-1) was > 100 µM (inactive) and the GI50 (K562) was > 100 µM (inactive). The GI50 (KM-20L2) was > 100 µM (inactive), the GI50 (KM12) was > 100 µM (inactive) and the GI50 (LOX IMVI) was > 100 µM (inactive). For the same molecule, the GI50 (LXFL 529) was > 100 µM (inactive), the GI50 (M14) was > 100 µM (inactive) and the GI50 (M19-MEL) was > 100 µM (inactive). The GI50 (MOLT-4) was > 100 µM (inactive), the GI50 (Malme-3M) was > 100 µM (inactive) and the GI50 (NCI-H226) was > 100 µM (inactive). For the same molecule, the GI50 (NCI-H23) was > 100 µM (inactive), the GI50 (NCI-H460) was 57.9 µM (inactive) and the GI50 (NCI-H522) was > 100 µM (inactive). For the same molecule, the GI50 (OVCAR-3) was > 100 µM (inactive), the GI50 (OVCAR-4) was > 100 µM (inactive) and the GI50 (OVCAR-5) was > 100 µM (inactive). For the same molecule, the GI50 (OVCAR-8) was > 100 µM (inactive), the GI50 (RPMI-8226) was > 100 µM (inactive) and the GI50 (RXF 393) was > 100 µM (inactive). The GI50 (RXF 631) was > 100 µM (inactive), the GI50 (SF-268) was > 100 µM (inactive) and the GI50 (SF-295) was > 100 µM (inactive). The GI50 (SF-539) was > 100 µM (inactive), the GI50 (SK-MEL-28) was > 100 µM (inactive) and the GI50 (SK-MEL-2) was > 100 µM (inactive). For the same molecule, the GI50 (SK-MEL-5) was > 100 µM (inactive), the GI50 (SK-OV-3) was > 100 µM (inactive) and the GI50 (SN12C) was > 100 µM (inactive). The GI50 (SNB-19) was > 100 µM (inactive), the GI50 (SNB-75) was > 100 µM (inactive) and the GI50 (SNB-78) was > 100 µM (inactive). For the same molecule, the GI50 (SW-620) was > 100 µM (inactive), the GI50 (TK-10) was > 100 µM (inactive) and the GI50 (U-251) was > 100 µM (inactive). The GI50 (UACC-257) was > 100 µM (inactive), the GI50 (UACC-62) was > 100 µM (inactive) and the GI50 (UO-31) was > 100 µM (inactive).
